Relative viability data for four cell lines are collected here from the supplement of paper PMC10307832.

Assay in all cases: relative viability (nuclei count vs DMSO), 5 days (fraction); higher = more cells survive
Compound in test [1]: c1ccc2c(CCNc3ccc(Nc4ccncc4)cc3)c[nH]c2c1 [Serdemetan] + CS(=O)(=O)CCNCc1ccc(-c2ccc3ncnc(Nc4ccc(OCc5cccc(F)c5)c(Cl)c4)c3c2)o1 [Lapatinib] (partner 2 µM)
An outline of the steps: (§1)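 Lung cancer cell lines were seeded in 1536-well plates and dosed by pin tool the next day, with either a single drug or a fixed anchor-drug dose combined with five library-drug doses (not always all listed) spaced in √10 steps. Five days later, one step fixed the cells and stained their nuclei (final 0.05% Triton X-100, 1% formaldehyde, 1 ug/ml Hoechst), and nuclei were counted on 4× images. Relative viability is the nuclei count in treated wells divided by the count in vehicle wells, and each value is the median of duplicate plates.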

Compound in test [2]: C1CC(C2=C(C1)C3=C(N2)C=CC(=C3)Cl)C(=O)N [Selisistat] + COc1cccc2cc(-c3nc([C@H]4CC[C@H](C(=O)O)CC4)n4ncnc(N)c34)[nH]c12 [OSI-027] (partner 0.5 µM)
An outline of the steps: as §1

Compound in test [3]: c1ccc2c(CCNc3ccc(Nc4ccncc4)cc3)c[nH]c2c1 [Serdemetan] + NC(=O)Nc1cc(-c2cccc(F)c2)sc1C(=O)N[C@H]1CCCNC1 [AZD7762] (partner 0.2 µM)
An outline of the steps:
as §1

Compound in test [4]: c1ccc2c(CCNc3ccc(Nc4ccncc4)cc3)c[nH]c2c1 [Serdemetan] + CCNC(=O)c1noc(-c2cc(C(C)C)c(O)cc2O)c1-c1ccc(CN2CCOCC2)cc1 [Luminespib] (partner 0.01 µM)
Summed up:
as §1

LXF-289: the relative viability in test [1] (first compound 0.04 µM) came to 0.857; in test [1] (first compound 0.1265 µM) it was 0.885; in test [1] (first compound 0.4 µM), 0.851; in test [1] (first compound 1.265 µM) it was 0.827; in test [1] (first compound 4 µM), 0.759; in test [2] (first compound 0.4 µM), 0.797. In addition, the relative viability in test [2] (first compound 1.265 µM) turned out to be 0.806; in test [2] (first compound 4 µM), 0.667; in test [2] (first compound 12.65 µM), 0.788; in test [2] (first compound 40 µM) it was 0.838; in test [3] (first compound 0.04 µM), 1.07; in test [3] (first compound 0.1265 µM) it was 1.11. The relative viability in test [3] (first compound 0.4 µM) came out at 1.07; in test [3] (first compound 1.265 µM), 0.982; in test [3] (first compound 4 µM), 0.846; in test [4] (first compound 0.04 µM), 0.636; in test [4] (first compound 0.1265 µM), 0.706; in test [4] (first compound 0.4 µM), 0.625. Moreover, the relative viability in test [4] (first compound 1.265 µM) came to 0.517; in test [4] (first compound 4 µM), 0.401.
NCI-H23: the relative viability in test [1] (first compound 0.04 µM) amounted to 1.11; in test [1] (first compound 0.1265 µM), 1.19; in test [1] (first compound 0.4 µM), 1.13; in test [1] (first compound 1.265 µM), 0.818; in test [1] (first compound 4 µM) it was 1.07; in test [2] (first compound 0.4 µM), 0.56. In addition, the relative viability turned out to be 0.602 in test [2] (first compound 1.265 µM); 0.508 in test [2] (first compound 4 µM); 0.529 in test [2] (first compound 12.65 µM); 0.605 in test [2] (first compound 40 µM); 0.274 in test [3] (first compound 0.04 µM); 0.235 in test [3] (first compound 0.1265 µM). In addition, the relative viability in test [3] (first compound 0.4 µM) is 0.261; in test [3] (first compound 4 µM), 0.208; in test [4] (first compound 0.04 µM), 0.219; in test [4] (first compound 0.1265 µM), 0.223; in test [4] (first compound 0.4 µM), 0.214; in test [4] (first compound 1.265 µM), 0.211. Also, in test [4] (first compound 4 µM), the relative viability turned out to be 0.196.
Turning to NCI-H322M, the relative viability in test [1] (first compound 0.04 µM) was 0.577; in test [1] (first compound 0.1265 µM), 0.585; in test [1] (first compound 0.4 µM), 0.546; in test [1] (first compound 1.265 µM), 0.546; in test [1] (first compound 4 µM), 0.562; in test [2] (first compound 0.4 µM) it was 0.607. In addition, the relative viability in test [2] (first compound 1.265 µM) came to 0.583; in test [2] (first compound 4 µM) it was 0.461; in test [2] (first compound 12.65 µM), 0.507; in test [2] (first compound 40 µM), 0.576; in test [3] (first compound 0.04 µM), 0.565; in test [3] (first compound 0.1265 µM), 0.573. Also, the relative viability in test [3] (first compound 0.4 µM) was determined as 0.533; in test [3] (first compound 1.265 µM), 0.524; in test [3] (first compound 4 µM) it was 0.43; in test [4] (first compound 0.04 µM), 0.807; in test [4] (first compound 0.1265 µM), 0.845; in test [4] (first compound 0.4 µM) it was 0.772. In addition, the values for the relative viability in test [4] (first compound 1.265 µM) and in test [4] (first compound 4 µM) were 0.861 and 0.678, respectively.
As for NCI-H358, the relative viability in test [1] (first compound 0.04 µM) came to 0.42; in test [1] (first compound 0.1265 µM), 0.509; in test [1] (first compound 0.4 µM), 0.439; in test [1] (first compound 1.265 µM), 0.558; in test [1] (first compound 4 µM), 0.405; in test [2] (first compound 0.4 µM), 0.926. Besides, the relative viability worked out at 0.802 in test [2] (first compound 1.265 µM); 0.363 in test [2] (first compound 4 µM); 0.709 in test [2] (first compound 12.65 µM); 0.905 in test [2] (first compound 40 µM); 0.525 in test [3] (first compound 0.04 µM); 0.5 in test [3] (first compound 0.1265 µM). For the same cell line, the relative viability came out at 0.455 in test [3] (first compound 0.4 µM); 0.335 in test [3] (first compound 1.265 µM); 0.381 in test [3] (first compound 4 µM); 0.63 in test [4] (first compound 0.04 µM); 0.351 in test [4] (first compound 0.1265 µM); 0.254 in test [4] (first compound 0.4 µM). Further, the relative viability in test [4] (first compound 1.265 µM) worked out at 0.465; in test [4] (first compound 4 µM) it was 0.207.
